Assay results published in patent EP1401829B1, “NOVEL HETEROCYCLIC ANTIBACTERIAL COMPOUNDS” (Microbiotix, Inc., priority 2001, dated 2002).
≈ marks a conversion by molar mass, not a printed value. Where two headings read alike, the source gives them in different places.

What was measured:
B. subtilis = assay: Minimal Inhibitory Concentration (MIC) determination, 96 well plates; type: cell-based, Bacillus subtilis; settings: Bacillus subtilis; HBI medium, 16 to 18 hours at 37°C; read-out: MIC (µg/ml) B. subtilis
In short: (§1)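 Broth growth in Heart-Brain Infusion medium, seeded at about 1x10^5 CFU/ml, 16 to 18 hours at 37°C. Growth read at OD 600 nm as percent of untreated control; five concentrations per drug, five data points each, MIC reported in µg/ml.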

E. fecium = assay: as above; type: cell-based, Enterococcus fecium; settings: Enterococcus; HBI medium, 16 to 18 hours at 37°C; read-out: MIC (µg/ml) E. fecium
In short: as §1

E. coli = assay: as above; type: cell-based, Escherichia coli; settings: Escherichia coli; HBI medium, 16 to 18 hours at 37°C; read-out: MIC (µg/ml) E. coli
In short: (§2)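 Cultures seeded at approximately 1x10^5 CFU/ml in Heart-Brain Infusion medium were exposed to five compound concentrations, five data points each, for 16 to 18 hours at 37°C. Growth at OD 600 nm was expressed as percent of control, and MIC values are given in µg/ml.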

S. aureus = assay: as above; type: cell-based, Staphylococcus aureus; settings: Staphylococcus aureus, read-out: MIC (µg/ml) S. aureus
In short: as §2

B. subtilis Pol IIIC = target: T1, B. subtilis Pol IIIC (Bacillus subtilis, UniProt P13267); assay: Polymerase IIIC (Pol IIIC) assay, determination of Ki values; type: biochemical; settings: Ki (µM) Pol IIIC, assay in absence of dGTP or dATP; Ki is the concentration that reduces control polymerase IIIC activity by 50 percent
T1 construct: made in house
T1 sequence (P13267 whole entry): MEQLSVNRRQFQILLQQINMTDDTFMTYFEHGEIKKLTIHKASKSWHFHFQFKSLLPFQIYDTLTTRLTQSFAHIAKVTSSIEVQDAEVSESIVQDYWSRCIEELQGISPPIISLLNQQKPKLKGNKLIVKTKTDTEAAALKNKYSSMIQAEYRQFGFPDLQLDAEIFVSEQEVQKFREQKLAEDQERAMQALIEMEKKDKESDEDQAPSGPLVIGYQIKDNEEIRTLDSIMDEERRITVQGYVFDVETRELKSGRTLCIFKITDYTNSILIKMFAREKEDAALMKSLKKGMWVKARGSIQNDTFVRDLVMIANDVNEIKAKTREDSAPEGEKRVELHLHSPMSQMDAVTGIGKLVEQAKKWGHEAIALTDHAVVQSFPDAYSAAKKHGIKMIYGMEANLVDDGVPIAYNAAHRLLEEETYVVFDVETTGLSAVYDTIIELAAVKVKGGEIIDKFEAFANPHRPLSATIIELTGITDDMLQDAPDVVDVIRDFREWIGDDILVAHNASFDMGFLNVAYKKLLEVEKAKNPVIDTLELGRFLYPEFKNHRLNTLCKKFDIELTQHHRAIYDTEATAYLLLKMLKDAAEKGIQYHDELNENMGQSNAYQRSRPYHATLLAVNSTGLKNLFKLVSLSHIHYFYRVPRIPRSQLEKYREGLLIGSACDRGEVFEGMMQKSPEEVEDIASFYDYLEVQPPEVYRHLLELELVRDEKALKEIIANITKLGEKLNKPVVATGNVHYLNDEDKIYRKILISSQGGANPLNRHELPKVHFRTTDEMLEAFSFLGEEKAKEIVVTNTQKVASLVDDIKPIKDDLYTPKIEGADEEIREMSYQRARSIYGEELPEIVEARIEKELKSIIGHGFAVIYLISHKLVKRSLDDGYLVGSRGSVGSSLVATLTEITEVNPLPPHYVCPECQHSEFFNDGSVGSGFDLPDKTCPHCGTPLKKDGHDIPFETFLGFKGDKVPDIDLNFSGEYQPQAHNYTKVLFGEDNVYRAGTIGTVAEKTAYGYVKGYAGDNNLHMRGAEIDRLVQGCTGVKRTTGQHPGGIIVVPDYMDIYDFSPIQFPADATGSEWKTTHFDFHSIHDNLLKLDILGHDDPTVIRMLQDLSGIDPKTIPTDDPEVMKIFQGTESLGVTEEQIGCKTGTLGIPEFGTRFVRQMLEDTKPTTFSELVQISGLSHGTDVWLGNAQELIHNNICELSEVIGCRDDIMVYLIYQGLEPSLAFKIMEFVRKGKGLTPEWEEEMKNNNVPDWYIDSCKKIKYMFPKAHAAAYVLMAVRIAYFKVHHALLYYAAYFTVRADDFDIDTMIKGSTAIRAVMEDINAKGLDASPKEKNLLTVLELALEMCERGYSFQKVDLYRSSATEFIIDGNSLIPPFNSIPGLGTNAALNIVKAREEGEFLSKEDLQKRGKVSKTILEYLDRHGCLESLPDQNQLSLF
In short: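 Isolated B. subtilis Pol IIIC (0.025–0.06 units) run 10 min at 30°C in 30 mM Tris pH 7.5, 10 mM Mg acetate, 4 mM DTT, 20% glycerol. Substrates were 0.4 mg/ml activated calf thymus DNA, 25 µM dNTPs and 10 µM [3H]dTTP, with dGTP or dATP omitted per compound structure.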

[1] = HBI medium, 16 to 18 hours at 37°C

SMILES	MIC (B. subtilis) [µg/mL]	MIC (E. fecium) [µg/mL]	MIC (E. coli) [µg/mL]	MIC (S. aureus; [1]) [µg/mL]	MIC (S. aureus; table of MSSA/MRSA strains) [µg/mL]	Ki (B. subtilis Pol IIIC) [µM]
CCc1cc(Nc2cc(=O)n(CCCCN3CCN(c4cc5c(cc4F)c(=O)c(C(=O)O)cn5C4CC4)CC3)c(=O)[nH]2)ccc1C [Compound 2, 3-{4-[1-(1-cyclopropyl-3-carboxy-4-oxo-6-fluoro-7-quinolyl)-4-piperazinyl]butyl}-6-(3-ethyl-4-methylanilino)uracil]	0.156 (≈ 0.247 µM)	1.25 (≈ 1.98 µM)	2.5 (≈ 3.96 µM)	0.625 (≈ 0.991 µM)	0.625 (≈ 0.991 µM)	0.024
CCc1cc(Nc2cc(=O)n(CCCCN3CCN(c4cc5c(cc4F)c(=O)c(C(=O)O)cn5C4CC4)CC3)c(=O)[nH]2)ccc1C.CS(=O)(=O)O [Compound 10, 3-{4-[1-(1-cyclopropyl-3-carboxy-4-oxo-6-fluoro-7-quinolyl)-4-piperazinyl]butyl}-6-(3-ethyl-4-methylanilino)uracil methanesulfonate]	0.313	2.5	5	0.625	0.625	0.018
CCc1cc(Nc2cc(=O)n(CCCCN3CCN(c4c(F)cc5c(=O)c(C(=O)O)cn(C6CC6)c5c4F)CC3C)c(=O)[nH]2)ccc1C (stereo not drawn) [Compound 70, 3-{4-[1-(1-cyclopropyl-3-carboxy-4-oxo-6,8-difluoro-7-quinolyl)-3-methyl-4-piperazinyl]butyl}-6-(3-ethyl-4-methylanilino)uracil]	0.156 (≈ 0.235 µM)	1.25 (≈ 1.89 µM)	> 80	0.313 (≈ 0.472 µM)	0.39 (≈ 0.588 µM)	0.019
